Assay results from ChEMBL document CHEMBL1121768, “Synthesis and platelet aggregation inhibitory activity of 4,5-bis(aryl)-2-substituted-thiazoles” (J Med Chem, 1981).
In brackets after ≈: the same amount, converted by molar mass.

How the values were obtained:
Assay type in all cases: functional
[1] = system: Cavia porcellus; assay: Percent inhibition of platelet aggregation following oral administration to guinea pigs at a dose of 1 mg/kg
[2] = species: Homo sapiens; assay: In vitro inhibition of collagen-induced platelet aggregation in human platelet rich plasma
[3] = system: Cavia porcellus; assay: Percent inhibition of platelet aggregation following oral administration to guinea pigs at a dose of 10 mg/kg
[4] = system: Cavia porcellus; assay: Percent inhibition of platelet aggregation following oral administration to guinea pigs at a dose of 5 mg/kg
[5] = species: Cavia porcellus; assay: In vitro inhibition of collagen-induced platelet aggregation in guinea pig platelet rich plasma
[6] = system: Cavia porcellus; assay: Percent inhibition of platelet aggregation following oral administration to guinea pigs at a dose of 0.5 mg/kg
[7] = system: Cavia porcellus; assay: Percent inhibition of platelet aggregation following oral administration to guinea pigs at a dose of 0.1 mg/kg
[8] = system: Cavia porcellus; assay: Percent inhibition of platelet aggregation at 4 hours following oral administration to guinea pigs at 5 mg/kg
[9] = system: Cavia porcellus; assay: Percent inhibition of platelet aggregation at 0 hours following oral administration to guinea pigs at 5 mg/kg
[10] = system: Cavia porcellus; assay: Percent inhibition of platelet aggregation at 24 hours following oral administration to guinea pigs at 5 mg/kg
[11] = system: Cavia porcellus; assay: Percent inhibition of platelet aggregation at 12 hours following oral administration to guinea pigs at 5 mg/kg
[12] = system: Cavia porcellus; assay: Percent inhibition of platelet aggregation at 16 hours following oral administration to guinea pigs at 5 mg/kg
[13] = system: Cavia porcellus; assay: Percent inhibition of platelet aggregation at 8 hours following oral administration to guinea pigs at 5 mg/kg
[14] = system: Cavia porcellus; assay: Percent inhibition of platelet aggregation at 2 hours following oral administration to guinea pigs at 5 mg/kg

SMILES | inhibition in vivo at 1 mg/kg [1] | IC50 [2] | inhibition in vivo at 10 mg/kg [3] | inhibition in vivo at 5 mg/kg [4] | IC50 [5] | further results
COc1ccc(-c2nc(CC(N)=O)sc2-c2ccc(OC)cc2)cc1 | 39% | 3.2 ng/mL (≈ 0.00903 µM) | 100% | 96% | – | –
COc1ccc(-c2nc(C(C)(C)CO)sc2-c2ccc(OC)cc2)cc1 | – | 3.2 ng/mL (≈ 0.00866 µM) | – | – | 0.01 µg/mL (≈ 0.0271 µM) | –
COc1ccc(-c2nc(CC(=O)[O-])sc2-c2ccc(OC)cc2)cc1.[Li+] | – | 32 ng/mL | – | – | – | –
COc1ccc(-c2nc(CCO)sc2-c2ccc(OC)cc2)cc1 | 9% | 0.32 ng/mL (≈ 0.000937 µM) | 100% | 79% | 0.0032 µg/mL (≈ 0.00937 µM) | –
FC(F)(F)c1nc(-c2ccc(Cl)cc2)c(-c2ccc(Cl)cc2)s1 | – | 32 ng/mL (≈ 0.0855 µM) | – | – | – | –
FC(F)(F)c1nc(-c2ccccc2)c(-c2ccccc2)s1 | – | 320 ng/mL (≈ 1.05 µM) | – | – | – | –
COC(=O)Cc1nc(-c2ccc(OC)cc2)c(-c2ccc(OC)cc2)s1 | – | 0.1 ng/mL (≈ 0.000271 µM) | – | – | – | –
COc1ccc(-c2nc(C)sc2-c2ccc(OC)cc2)cc1 | – | 0.32 ng/mL (≈ 0.00103 µM) | – | – | – | –
COc1ccc(-c2ncsc2-c2ccc(OC)cc2)cc1 | – | 32 ng/mL (≈ 0.108 µM) | – | – | – | –
COc1ccc(-c2nc(C(C)C)sc2-c2ccc(OC)cc2)cc1 | 6% | 3.2 ng/mL (≈ 0.00943 µM) | 100% | 85% | 0.01 µg/mL (≈ 0.0295 µM) | –
COC(=O)C(C)(C)c1nc(-c2ccc(OC)cc2)c(-c2ccc(OC)cc2)s1 | 27% | 3.2 ng/mL (≈ 0.00805 µM) | 100% | 100% | 0.01 µg/mL (≈ 0.0252 µM) | –
CC(=O)Oc1ccccc1C(=O)O [ASPIRIN] | – | 10000 ng/mL (≈ 55.5 µM) | – | – | – | –
CC(C(=O)O)c1ccc(-c2ccccc2)c(F)c1 (centres undefined) [FLURBIPROFEN] | – | 320 ng/mL (≈ 1.31 µM) | – | – | 0.32 µg/mL (≈ 1.31 µM) | –
COc1ccc(-c2nc(C(F)(F)F)sc2-c2ccc(OC)cc2)cc1 [ITAZIGREL] | 83% | 1 ng/mL (≈ 0.00274 µM) | 100% | 100% | 0.01 µg/mL (≈ 0.0274 µM) | inhibition in vivo at 0.5 mg/kg [6]: 68.5%; inhibition in vivo at 0.1 mg/kg [7]: 6%; inhibition in vivo at 5 mg/kg [8]: 68.5%; inhibition in vivo at 5 mg/kg [9]: 0%; inhibition in vivo at 5 mg/kg [10]: 10.3%; inhibition in vivo at 5 mg/kg [11]: 48.7%; inhibition in vivo at 5 mg/kg [12]: 16.2%; inhibition in vivo at 5 mg/kg [13]: 93.2%; inhibition in vivo at 5 mg/kg [14]: 97%
